Where a SMILES comes first, the peptide text is derived from it. [ ]: non-standard residue; d: D form. dTrp(2-Me) = Cc1[nH]c2ccccc2c1C[C@@H](N)C(=O)O
Assay: Body temperature, mortality and body weight in the hypoxia-ischemia study
Assay type: in vivo, rats
Settings: between the two groups (hexarelin vs. vehicle); data not shown
From the text: In a neonatal model that has previously been described (Rice J. E., V. R. C. Brierley, Ann. Neurol. 9 (1981), 1126-35; Hagberg H. et al., Acta Paedeatr. Suppl 442 (1997), 85-88). Seven-day-old out bred Wistar Fue rats were anesthetised with enflurane (3,5% for induction and 1,5% for maintenance) in a mixture of nitrous oxide and oxygen on a snout mask. The left common carotid artery was cut between two prolene sutures (9-0). After anesthesia and surgery the animals were returned to there dams and allowed to recover for 60 minutes. They were thereafter exposed to 60 minutes of hypoxia in a humidified chamber at 36°C with 7.7±0.01% oxygen in nitrogen. The pups were returned to and kept with their dams until they were killed at different time points after the insult Animals were either perfused intracardially with saline and 5% buffered formaldehyde (Histofix; Histolab, Göteborg, Sweden) for preparation of paraffin sections or fresh tissue were immediately frozen in isopenthane on dry ice for preparation of protein homogenates. The animal ethics committee in Gothenburg approved the animal studies.
Animals received daily intracerebral injections of 5 µl solution containing either 5µg hexarelin or vehicle (NaCl 0.9 mg/ml). Injections were headed for the left ventricular at 1.5 mm lateral to the Sagittal suture, 5.7 mm rostral to lambda and 2.8 mm deep to the skull surface with a special made needle of 27 gauge. Injection velocity of 1.5 µl/min with a Hamilton syringe connected to a MCA pump.
Brain injury was evaluated and observer blinded between the study groups using a neuropathological scoring system where injury in cortex was graded from 0-4 with 0 being no observable injury and 4 being confluent infarction encompassing most of the hemisphere. The damage in the hippocampus, thalamus and striatum was assessed regarding both hypothrophy (shrinkage of cells) 0-3 and observable cell injury/infarction 0-3, resulting in a scoring for each region 0-6. The total score 0-22 was the sum score for all the four regions.

Cc1[nH]c2ccccc2c1C[C@@H](NC(=O)[C@@H](N)Cc1cnc[nH]1)C(=O)N[C@@H](C)C(=O)N[C@@H](Cc1c[nH]c2ccccc12)C(=O)N[C@H](Cc1ccccc1)C(=O)N[C@@H](CCCCN)C(N)=O [Hexarelin] (H-H[dTrp(2-Me)]AW[dF]K-NH2)
no differences: body temperature | body weight | mortality

Source: patent EP1529533A1, “Use of GH secretagogues in hypoxic-ischemic brain injury” (Sahltech I Göteborg AB, priority 2003, dated 2005)
